These results are taken from ChEMBL document CHEMBL1201862, “PubChem BioAssay data set” (2004).

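Interpolation was linear, between the two tested concentrations surrounding the appropriate level; five concentrations were tested over 48 hours in 96-well plates. Abbreviation: GI50, concentration required for 50% inhibition of growth.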 Calls of active or inactive are those of the source. Cut-off read from the data, not from the text of the source: active = GI50 up to about 1.1 µM and inactive = higher.

Among the test systems are HCT-15; Malme-3M; U-251; MDA-MB-435; ACHN; TK-10; NCI-H23; SK-OV-3; OVCAR-4; OVCAR-5; MCF7; COLO 205; IGROV-1; OVCAR-3; Hs-578T; SK-MEL-5; MDA-N; 786-0; UACC-257; SK-MEL-2.
Assay in all cases: NCI anticancer screen, dose series, 48 h

For `CC(=O)c1ccc(O)c(CN(C2CCCCC2)C2CCCCC2)c1O`, the GI50 is more than 100 µM with HCT-15; > 100 µM (inactive) with Malme-3M; > 100 µM (inactive) in the experiment on U-251; > 100 µM (inactive) with MDA-MB-435; > 100 µM (inactive) with ACHN; 74.3 µM (inactive) in the experiment with TK-10. The GI50 in the experiment with NCI-H23, with SK-OV-3, with OVCAR-4, with OVCAR-5, in the experiment with MCF7 and with COLO 205 was > 100 µM (inactive) in each case. Moreover, the GI50 with IGROV-1, in the experiment with OVCAR-3, in the experiment with Hs-578T, with SK-MEL-5, in the experiment on MDA-N and with 786-0 was > 100 µM (inactive) in each case. In addition, the GI50 in the experiment on UACC-257 and in the experiment on SK-MEL-2 was > 100 µM (inactive) throughout.

Turning to `COC(=O)c1ccc(-n2c(C)nc(=O)c(-c3ccccc3)c2C)cc1`, the GI50 with HCT-15 was more than 100 µM; in the experiment on Malme-3M, > 100 µM (inactive); with U-251, > 100 µM (inactive); in the experiment with MDA-MB-435, > 100 µM (inactive); with ACHN, > 100 µM (inactive); in the experiment on TK-10 it was > 100 µM (inactive). Also, the GI50 in the experiment with NCI-H23, in the experiment with SK-OV-3, in the experiment on OVCAR-4, with OVCAR-5, in the experiment with MCF7 and in the experiment on COLO 205 was > 100 µM (inactive) each time. For the same molecule, the GI50 was > 100 µM (inactive) in the experiment on IGROV-1; > 100 µM (inactive) in the experiment with OVCAR-3; > 100 µM (inactive) with Hs-578T; > 100 µM (inactive) with SK-MEL-5; > 10 µM (inactive) with MDA-N; > 100 µM (inactive) in the experiment on 786-0. The GI50 is > 100 µM (inactive) in the experiment with UACC-257 and 30.7 µM (inactive) with SK-MEL-2.

In the case of `COc1ccc2nc3cc(Cl)ccc3c(NCCCN(CCCl)CCCl)c2c1`, the GI50 in the experiment with HCT-15 is 0.0253 µM; with Malme-3M, 0.0841 µM (active); with U-251, 0.0185 µM (active); with MDA-MB-435 it was 0.0323 µM (active); with ACHN, < 0.01 µM (active); with TK-10, 0.452 µM (active). Besides, the GI50 was 0.0116 µM (active) in the experiment with NCI-H23; 0.0484 µM (active) in the experiment on SK-OV-3; 0.0845 µM (active) in the experiment with OVCAR-4; 0.034 µM (active) with OVCAR-5; < 0.01 µM (active) in the experiment on MCF7; < 0.01 µM (active) in the experiment on COLO 205. Besides, the GI50 with IGROV-1 is 0.0324 µM (active); with OVCAR-3 it was 0.0432 µM (active); with Hs-578T, 0.0328 µM (active); with SK-MEL-5, 0.034 µM (active); in the experiment with MDA-N it was 0.0318 µM (active); in the experiment on 786-0, 0.0101 µM (active). For the same molecule, the figures for the GI50 in the experiment with UACC-257 and in the experiment with SK-MEL-2 were 0.122 µM (active) and 0.14 µM (active), respectively.

With `COc1ccc(COCC[C@H](C)OC2OC(CO[Si](C)(C)C(C)(C)C)C(O)C(O)C2O)cc1` (stereo not given in full), the GI50 with HCT-15 was more than 100 µM; in the experiment with Malme-3M it was > 100 µM (inactive); with U-251, > 100 µM (inactive); in the experiment on MDA-MB-435, > 100 µM (inactive); in the experiment on ACHN, > 100 µM (inactive); with TK-10 it was > 100 µM (inactive). Further, the GI50 in the experiment with NCI-H23, with SK-OV-3, with OVCAR-4, in the experiment on OVCAR-5, in the experiment on MCF7 and in the experiment with COLO 205 was > 100 µM (inactive) throughout. Further, the GI50 in the experiment with IGROV-1, in the experiment on OVCAR-3, with Hs-578T, in the experiment on SK-MEL-5, in the experiment with MDA-N and in the experiment with 786-0 was > 100 µM (inactive) throughout. Further, the GI50 in the experiment with UACC-257 and in the experiment on SK-MEL-2 was > 100 µM (inactive) throughout.

For the molecule `COC(=O)c1cc2ccc(OC(C)=O)c(OC(C)=O)c2cn1`, the GI50 with HCT-15 is 20.4 µM; in the experiment with Malme-3M, 8.07 µM (inactive); with U-251, 3.64 µM (inactive); with MDA-MB-435, 1.73 µM (inactive); with ACHN it was 17.1 µM (inactive); in the experiment on TK-10, 20.6 µM (inactive). Moreover, the GI50 with NCI-H23 is 18 µM (inactive); in the experiment on SK-OV-3 it was 19.4 µM (inactive); in the experiment on OVCAR-4, 16.7 µM (inactive); in the experiment on OVCAR-5, 18.7 µM (inactive); in the experiment with MCF7, 2.79 µM (inactive); in the experiment on COLO 205, 18.7 µM (inactive). The GI50 is 18.6 µM (inactive) with IGROV-1; 13 µM (inactive) in the experiment with OVCAR-3; > 10 µM (inactive) in the experiment with Hs-578T; 16.1 µM (inactive) in the experiment with SK-MEL-5; 1.5 µM (inactive) with MDA-N; 18.5 µM (inactive) in the experiment with 786-0. Besides, the GI50 is 14.4 µM (inactive) with UACC-257 and 18.3 µM (inactive) in the experiment on SK-MEL-2.

Regarding `CC(C)C(N)(C(=O)O)c1ccccc1` (stereo not given), the GI50 in the experiment on HCT-15 was more than 100 µM; with Malme-3M it was > 100 µM (inactive); with U-251 it was > 100 µM (inactive); in the experiment with MDA-MB-435, > 100 µM (inactive); in the experiment with ACHN, > 100 µM (inactive); in the experiment on TK-10 it was > 100 µM (inactive). The GI50 in the experiment with NCI-H23, with SK-OV-3, in the experiment with OVCAR-4, in the experiment with OVCAR-5, with MCF7 and with COLO 205 was > 100 µM (inactive) throughout. The GI50 in the experiment with IGROV-1, with OVCAR-3, in the experiment on Hs-578T, with SK-MEL-5, with MDA-N and in the experiment on 786-0 was > 100 µM (inactive) each time. The GI50 in the experiment on UACC-257 and with SK-MEL-2 was > 100 µM (inactive) throughout.

Take `O=[N+]([O-])c1ccc2c(c1)N=C1OC(c3c[nH]c4ccc(COc5ccccc5)cc34)C(O)=C1N2` (stereo not given): the GI50 in the experiment with HCT-15 was more than 100 µM; in the experiment with Malme-3M it was > 100 µM (inactive); in the experiment on U-251, > 100 µM (inactive); with MDA-MB-435, > 100 µM (inactive); with ACHN it was > 100 µM (inactive); with TK-10, 59.2 µM (inactive). Further, the GI50 was > 100 µM (inactive) in the experiment on NCI-H23; 98.9 µM (inactive) with SK-OV-3; > 100 µM (inactive) in the experiment with OVCAR-4; > 100 µM (inactive) in the experiment with OVCAR-5; 55 µM (inactive) with MCF7; 23.2 µM (inactive) in the experiment on COLO 205. Besides, the GI50 with IGROV-1 is > 100 µM (inactive); in the experiment with OVCAR-3, > 100 µM (inactive); with Hs-578T, > 100 µM (inactive); in the experiment on SK-MEL-5, 37.5 µM (inactive); with MDA-N it was > 100 µM (inactive); in the experiment on 786-0 it was 53.8 µM (inactive). Moreover, the GI50 in the experiment with UACC-257 was 33.7 µM (inactive); with SK-MEL-2 it was > 100 µM (inactive).

Take `CCOP(=O)(OCC)C(C)(CC)NC1=NC(C(F)(F)F)(C(F)(F)F)NC(=O)N1` (stereo not given): the GI50 in the experiment with HCT-15 was more than 100 µM; in the experiment with Malme-3M, > 100 µM (inactive); with U-251, > 100 µM (inactive); in the experiment on MDA-MB-435, > 100 µM (inactive); with ACHN, > 100 µM (inactive); in the experiment with TK-10, > 100 µM (inactive). For the same molecule, the GI50 in the experiment on NCI-H23, with SK-OV-3, with OVCAR-4, in the experiment with OVCAR-5, in the experiment with MCF7 and with COLO 205 was > 100 µM (inactive) each time. Also, the GI50 in the experiment with IGROV-1 was 70.1 µM (inactive); in the experiment with OVCAR-3 it was > 100 µM (inactive); in the experiment with Hs-578T it was 29.8 µM (inactive); in the experiment on SK-MEL-5 it was > 100 µM (inactive); with MDA-N, > 100 µM (inactive); in the experiment with 786-0, > 100 µM (inactive). In addition, the GI50 in the experiment on UACC-257 and with SK-MEL-2 was > 100 µM (inactive) each time.

On to `CSCCC(N)C(=O)NCCNc1ccc(NCCNC(=O)C(N)CCSC)c2c1C(=O)c1ccccc1C2=O` (stereo not given), for which the GI50 in the experiment on HCT-15 was 1.22 µM; with Malme-3M, 1.89 µM (inactive); in the experiment with U-251, 0.6 µM (active); in the experiment with MDA-MB-435, 1.86 µM (inactive); in the experiment on ACHN, 0.456 µM (active); in the experiment on TK-10 it was 2.09 µM (inactive). The GI50 was 1.05 µM (active) in the experiment with NCI-H23; 2.62 µM (inactive) in the experiment with SK-OV-3; 1.67 µM (inactive) in the experiment with OVCAR-4; 1.99 µM (inactive) in the experiment on OVCAR-5; 0.409 µM (active) in the experiment on MCF7; 1.16 µM (inactive) in the experiment with COLO 205. Also, the GI50 in the experiment on IGROV-1 was 2.12 µM (inactive); in the experiment with OVCAR-3 it was 3.03 µM (inactive); in the experiment with Hs-578T, 1.02 µM (active); with SK-MEL-5 it was 3.48 µM (inactive); with MDA-N, 1.69 µM (inactive); in the experiment with 786-0, 0.308 µM (active). The GI50 in the experiment with UACC-257 was 3.25 µM (inactive); with SK-MEL-2, 3.41 µM (inactive).

Consider `CC(C)c1nc2cc(C(F)(F)F)ccc2[nH]c1=O`, for which the GI50 with HCT-15 was more than 100 µM; with Malme-3M, > 100 µM (inactive); with U-251 it was > 100 µM (inactive); with MDA-MB-435 it was > 100 µM (inactive); with ACHN, 72.1 µM (inactive); in the experiment on TK-10 it was 70.6 µM (inactive). In addition, the GI50 was > 100 µM (inactive) in the experiment with NCI-H23; > 100 µM (inactive) with SK-OV-3; 94.8 µM (inactive) with OVCAR-4; > 100 µM (inactive) in the experiment with OVCAR-5; 85.9 µM (inactive) with MCF7; > 100 µM (inactive) in the experiment on COLO 205. For the same molecule, the GI50 in the experiment on IGROV-1 is > 100 µM (inactive); in the experiment on OVCAR-3 it was 49.9 µM (inactive); in the experiment with Hs-578T, 3.4 µM (inactive); in the experiment with SK-MEL-5, 61.7 µM (inactive); in the experiment on MDA-N, > 100 µM (inactive); in the experiment with 786-0, 66.7 µM (inactive). Further, the GI50 in the experiment on UACC-257 was > 100 µM (inactive); in the experiment on SK-MEL-2, 62.1 µM (inactive).
